In US20240148821A1, “PHARMACEUTICAL USE OF CYCLIC PEPTIDE COMPOUND” (CHUGAI SEIYAKU KABUSHIKI KAISHA, priority 2021, published 2024):
Numbered stars: 1 amine (or outer) side, 2 acyl side, 3 side chain; on linkers, the order of the positions; unused ones are H or OH. Bridge positions count the residues as written; N and C are the ends. Square brackets hold non-standard residues; d marks the D form. Peptide text beside a SMILES is read from it. * marks the point of attachment. hPhe(3,5-F2-4-CF3) = N[C@@H](CCc1cc(F)c(C(F)(F)F)c(F)c1)C(=O)O; hPhe(3-Cl-4-CF3) = N[C@@H](CCc1ccc(C(F)(F)F)c(Cl)c1)C(=O)O; NMePhe(4-CF3) = CN[C@@H](Cc1ccc(C(F)(F)F)cc1)C(=O)O; Phe(4-CF3) = N[C@@H](Cc1ccc(C(F)(F)F)cc1)C(=O)O; NMeAbu(4,4,4-F3) = CN[C@@H](CC(F)(F)F)C(=O)O; NMePhe(4-Me) = CN[C@@H](Cc1ccc(C)cc1)C(=O)O; X109 = O=C([C@H](Cc1cccc(I)c1F)N[*:1])[*:2]; NMeGly(cPent) = CN[C@H](C(=O)O)C1CCCC1; Phe(3-I) = N[C@@H](Cc1cccc(I)c1)C(=O)O; Pro(4,4-F2) = O=C(O)[C@@H]1CC(F)(F)CN1; NMe3Pal = CN[C@@H](Cc1cccnc1)C(=O)O; NMeY = CN[C@@H](Cc1ccc(O)cc1)C(=O)O; NMeCha = CN[C@@H](CC1CCCCC1)C(=O)O; NMeGly(cPr) = CN[C@H](C(=O)O)C1CC1; NMeChg = CN[C@H](C(=O)O)C1CCCCC1; NMeI = CC[C@H](C)[C@H](NC)C(=O)O; NMeD = CN[C@@H](CC(=O)O)C(=O)O; NMeL = CN[C@@H](CC(C)C)C(=O)O; NMeV = CN[C@H](C(=O)O)C(C)C; d(β3hA) = C[C@@H](N)CC(=O)O; NMeAbu = CC[C@H](NC)C(=O)O; NMeA = CN[C@@H](C)C(=O)O; NMeAib = CNC(C)(C)C(=O)O; Nle = CCCC[C@H](N)C(=O)O; Piperidide = C1CCN(*)CC1; Pyrrolidide = C1CCN(*)C1; dNMeA = CN[C@H](C)C(=O)O; Ac5c = NC1(C(=O)O)CCCC1; Aze = O=C(O)[C@@H]1CCN1; Sar = CNCC(=O)O

What follows are compounds tested on Human pancreatic cancer cell line AsPC-1 (G12D mutation Kras) (assay: AsPC-1 cell growth inhibition (AsPC-1 CGI)). Conditions: read-out: AsPC-1 cell growth inhibition, 50% growth inhibitory concentration (IC50 value); 96 hours, CellTiter-Glo, values classified in ranges.
Type: cell-based
Procedure: Test compounds were serially dilated with dimethyl sulfoxide, and 200 nL was then dispensed to a U-bottom 96-well plate using Labcyte Echo. […] The cell suspension was dispensed to a. plate containing a test compound at 100 μL per well and incubated at 37° C. in a 5% carbon dioxide gas incubator. 96 hours later, 80 μL of CellTiter-Glo (Promega) was added to each well and fluorescence was measured.
With CC[C@H](C)[C@@H]1NC(=O)[C@H](CC(C)C)N(C)C(=O)C[C@@H](C)NC(=O)[C@H](C2CC2)N(C)C(=O)C2(CCCC2)NC(=O)[C@@H]2CCCN2C(=O)[C@H](CCc2ccc(C(F)(F)F)c(Cl)c2)NC(=O)CN(C)C(=O)[C@H](CC2CCCCC2)N(C)C(=O)CN(C)C(=O)CN(C)C1=O [Compound 14] (cyclo([Ac5c][NMeGly(cPr)][d(β3hA)][NMeL]I[Sar][Sar][NMeCha][Sar][hPhe(3-Cl-4-CF3)]P)) the IC50 was over 500 nM.
Compound CC[C@H](C)[C@@H]1NC(=O)[C@H](C)N(C)C(=O)C[C@@H](C)NC(=O)[C@H](C2CCCC2)N(C)C(=O)C2(CCCC2)NC(=O)[C@@H]2CCCN2C(=O)[C@H](CCc2ccc(C(F)(F)F)c(Cl)c2)NC(=O)[C@@H](C)N(C)C(=O)[C@H](Cc2ccc(C(F)(F)F)cc2)N(C)C(=O)[C@@H]2CCN2C(=O)CN(C)C1=O [Compound 1507] (cyclo([Ac5c][NMeGly(cPent)][d(β3hA)][NMeA]I[Sar][Aze][NMePhe(4-CF3)][dNMeA][hPhe(3-Cl-4-CF3)]P)) has an IC50 of over 500 nM.
CC[C@H](C)[C@@H]1NC(=O)[C@H](CC(C)C)N(C)C(=O)C[C@@H](C(=O)N(C)C)N(C)C(=O)[C@H]([C@@H](C)CC)N(C)C(=O)[C@H](C)NC(=O)[C@H](Cc2cccnc2)N(C)C(=O)[C@H](CCc2ccc(C(F)(F)F)c(Cl)c2)NC(=O)CN(C)C(=O)[C@H](Cc2ccc(C)cc2)N(C)C(=O)[C@@H]2CCN2C(=O)[C@H](C)N(C)C1=O [Compound 557] ([NMeL]I[NMeA][Aze][NMePhe(4-Me)][Sar][hPhe(3-Cl-4-CF3)][NMe3Pal]A[NMeI][NMeD]-NMe2; lactam N-11) showed an IC50 of over 500 nM.
CC[C@H](C)[C@@H]1NC(=O)[C@H](CC(C)C)N(C)C(=O)C[C@@H](C(=O)N2CCCCC2)N(C)C(=O)[C@H](CC(C)C)NC(=O)C(C)(C)N(C)C(=O)[C@H](Cc2ccc(C(F)(F)F)cc2)NC(=O)[C@H](Cc2cccc(I)c2)NC(=O)CN(C)C(=O)[C@H](CC2CCCCC2)N(C)C(=O)CN(C)C(=O)CN(C)C1=O [Compound 336] ([NMeL]I[Sar][Sar][NMeCha][Sar][Phe(3-I)][Phe(4-CF3)][NMeAib]L[NMeD]-Piperidide; lactam N-11) was tested, and the IC50 was over 500 nM.
In the case of CC[C@H](C)[C@@H]1NC(=O)[C@H](CC(C)C)N(C)C(=O)C[C@@H](C(=O)N(C)C)N(C)C(=O)[C@H](C2CCCC2)N(C)C(=O)C2(CCCC2)NC(=O)[C@@H]2CC(F)(F)CN2C(=O)[C@H](CCc2cc(F)c(C(F)(F)F)c(F)c2)NC(=O)CN(C)C(=O)[C@H](CC2CCCCC2)N(C)C(=O)[C@@H]2CCN2C(=O)[C@H](C)N(C)C1=O [Compound 1346] ([NMeL]I[NMeA][Aze][NMeCha][Sar][hPhe(3,5-F2-4-CF3)][Pro(4,4-F2)][Ac5c][NMeGly(cPent)][NMeD]-NMe2; lactam N-11), the IC50 is reported as at most 20 nM.
In the case of CC[C@H](C)[C@@H]1NC(=O)[C@H](CC(C)C)N(C)C(=O)C[C@@H](C)NC(=O)[C@H](C(C)C)N(C)C(=O)C2(CCCC2)NC(=O)[C@@H]2CCCN2C(=O)[C@H](CCc2ccc(C(F)(F)F)c(Cl)c2)NC(=O)CN(C)C(=O)[C@H](COc2ccccc2Cl)N(C)C(=O)CN(C)C(=O)CN(C)C1=O [Compound 1582], the IC50 is reported as over 500 nM.
Compound CCCC[C@@H]1NC(=O)[C@H](Cc2cccc(I)c2F)NC(=O)CN(C)C(=O)[C@H](Cc2ccc(OC)cc2)N(C)C(=O)[C@@H]2CCN2C(=O)[C@H](C)N(C)C(=O)[C@H]([C@@H](C)CC)NC(=O)[C@H](CC)N(C)C(=O)C[C@@H](C(=O)N2CCCCC2)N(C)C(=O)[C@H](CC(C)C)NC(=O)C(C)(C)N(C)C1=O [Compound 1249] ([NMeAbu]I[NMeA][Aze][NMeY](Me)[Sar][X109][Nle][NMeAib]L[NMeD]-Piperidide; lactam N-11) has an IC50 of over 500 nM.
CC[C@H](C)[C@@H]1NC(=O)[C@H](CC(F)(F)F)N(C)C(=O)C[C@@H](C(=O)N2CCCC2)N(C)C(=O)[C@H](C2CCCCC2)N(C)C(=O)C2(CCCC2)NC(=O)[C@@H]2CC(F)(F)CN2C(=O)[C@H](CCc2cc(F)c(C(F)(F)F)c(F)c2)NC(=O)CN(C)C(=O)[C@H](Cc2ccc(C)cc2)N(C)C(=O)CN(C)C(=O)CN(C)C1=O [Compound 1317] ([NMeAbu(4,4,4-F3)]I[Sar][Sar][NMePhe(4-Me)][Sar][hPhe(3,5-F2-4-CF3)][Pro(4,4-F2)][Ac5c][NMeChg][NMeD]-Pyrrolidide; lactam N-11) gave an IC50 of at most 20 nM.
For CC[C@H](C)[C@@H]1NC(=O)[C@H](C2CC2)N(C)C(=O)C[C@@H](C)NC(=O)[C@H](C(C)C)N(C)C(=O)C2(CCCC2)NC(=O)[C@@H]2CCCN2C(=O)[C@H](CCc2ccc(C(F)(F)F)c(Cl)c2)NC(=O)CN(C)C(=O)[C@H](CC2CCCCC2)N(C)C(=O)CN(C)C(=O)CN(C)C1=O [Compound 844] (cyclo([Ac5c][NMeV][d(β3hA)][NMeGly(cPr)]I[Sar][Sar][NMeCha][Sar][hPhe(3-Cl-4-CF3)]P)), the IC50 was over 500 nM.
